Assay results reported in US8883782B2, “Spiro-tetracyclic ring compounds as beta-secretase modulators and methods of use” (Amgen Inc., priority 2010, dated 2014).

Legend:
[1] = molecular target: Beta Secretase enzyme (BACE) (Homo sapiens, UniProt P56817); experiment: In vitro enzymatic BACE FRET (fluorescence resonance energy transfer) assay; assay type: biochemical; conditions: average IC50, enzyme assay; read-out: BACE 1 FRET assay
How it was run: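 A peptide bearing a fluorophore and quencher across the cleavage site serves as substrate at 50 nM. Reactions proceed one hour in acidic acetate buffer (0.05 M, pH 4.2) containing 10% DMSO final and 100 uM genapol, then are terminated with Tris and read fluorimetrically.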

[2] = tested on: Aβ40 in conditioned medium of cells stably expressing Amyloid Precursor Protein (APP); experiment: In vitro BACE cell-based assay (Aβ40 in conditioned medium, sandwich ELISA); conditions: Homo sapiens, HEK293, average IC50; read-out: HEK cell assay
How it was run: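 Quantification relied on pAb40/6E10 sandwich ELISA with Europium fluorescence counts, and IC50 was fitted versus concentration.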

Sequence of Beta Secretase enzyme (BACE) (P56817 46-501, species assumed): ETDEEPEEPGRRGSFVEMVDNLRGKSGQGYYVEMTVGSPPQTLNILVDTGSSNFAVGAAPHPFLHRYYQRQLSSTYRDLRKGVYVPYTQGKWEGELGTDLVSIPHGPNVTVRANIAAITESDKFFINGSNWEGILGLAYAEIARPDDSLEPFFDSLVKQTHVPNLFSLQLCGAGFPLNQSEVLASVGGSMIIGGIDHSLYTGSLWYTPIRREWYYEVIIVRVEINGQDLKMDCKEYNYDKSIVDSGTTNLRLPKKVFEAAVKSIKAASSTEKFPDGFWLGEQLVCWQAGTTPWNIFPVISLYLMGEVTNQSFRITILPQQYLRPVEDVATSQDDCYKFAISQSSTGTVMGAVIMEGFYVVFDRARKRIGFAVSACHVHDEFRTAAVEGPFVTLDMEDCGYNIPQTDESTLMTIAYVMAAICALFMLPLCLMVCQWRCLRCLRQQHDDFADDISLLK

| SMILES | IC50 [1] | IC50 [2] |
| --- | --- | --- |
| Cc1cc(-c2cc3c(c(F)n2)Oc2ccc(-c4cccnc4F)cc2[C@@]32COC(N)=N2)ccn1 [Example 744, (5S)-1-fluoro-7-(2-fluoro-3-pyridinyl)-3-(2-methyl-4-pyridinyl)spiro[chromeno[2,3-c]pyridine-5,4′-[1,3]oxazol]-2′-amine] | 0.8 nM | 12 nM |
| NC1=N[C@]2(CO1)c1cc(-c3cccnc3F)ccc1Oc1c2cc(C#Cc2cccnc2)nc1F [Example 747, (5R)-1-fluoro-7-(2-fluoro-3-pyridinyl)-3-(3-pyridinylethynyl)spiro[chromeno[2,3-c]pyridine-5,4′-[1,3]oxazol]-2′-amine] | 1120 nM | ≥ 10000 nM |
| NC1=N[C@@]2(CO1)c1cc(-c3cccnc3F)ccc1Oc1c2cc(C#Cc2cccnc2)nc1F [Example 748, (5S)-1-fluoro-7-(2-fluoro-3-pyridinyl)-3-(3-pyridinylethynyl)spiro[chromeno[2,3-c]pyridine-5,4′-[1,3]oxazol]-2′-amine] | 0.4 nM | 74 nM |
| N#Cc1cccc(-c2ccc3c(c2)[C@@]2(CSC(N)=N2)c2cc(C4=CCOCC4)cnc2O3)c1F [Example 763, 3-((5S)-2′-amino-3-(3,6-dihydro-2H-pyran-4-yl)spiro[chromeno[2,3-b]pyridine-5,4′-[1,3]thiazol]-7-yl)-2-fluorobenzonitrile] | 2.1 nM | 17 nM |
| N#Cc1cc(-c2ccc3c(c2)[C@@]2(CSC(N)=N2)c2cc(C4=CCOCC4)cnc2O3)ccc1F [Example 764, 5-((5S)-2′-amino-3-(3,6-dihydro-2H-pyran-4-yl)spiro[chromeno[2,3-b]pyridine-5,4′-[1,3]thiazol]-7-yl)-2-fluorobenzonitrile] | 0.6 nM | 6 nM |
| NC1=N[C@@]2(CS1)c1cc(-c3cccnc3F)ccc1Oc1ncc(-c3cccnc3)cc12 [Example 765, (5S)-7-(2-fluoro-3-pyridinyl)-3-(3-pyridinyl)spiro[chromeno[2,3-b]pyridine-5,4′-[1,3]thiazol]-2′-amine] | 1 nM | 8 nM |
| Cc1ccc(-c2cnc3c(c2)[C@]2(CSC(N)=N2)c2cc(-c4cnccc4F)ccc2O3)cn1 [Example 766, (5S)-7-(4-fluoro-3-pyridinyl)-3-(6-methyl-3-pyridinyl)spiro[chromeno[2,3-b]pyridine-5,4′-[1,3]thiazol]-2′-amine] | 1.2 nM | 10 nM |
| NC1=N[C@@]2(CS1)c1cc(-c3cccnc3F)ccc1Oc1ncc(-c3ccnc(F)c3)cc12 [Example 767, (5S)-7-(2-fluoro-3-pyridinyl)-3-(2-fluoro-4-pyridinyl)spiro[chromeno[2,3-b]pyridine-5,4′-[1,3]thiazol]-2′-amine] | 1 nM | 23 nM |
| NC1=N[C@@]2(CS1)c1cc(-c3cnccc3F)ccc1Oc1ncc(C3=CCOCC3)cc12 [Example 768, (5S)-3-(3,6-dihydro-2H-pyran-4-yl)-7-(4-fluoro-3-pyridinyl)spiro[chromeno[2,3-b]pyridine-5,4′-[1,3]thiazol]-2′-amine] | 1.2 nM | 16 nM |
| NC1=N[C@@]2(CS1)c1cc(-c3cnccc3F)ccc1Oc1ncc(-c3cccnc3)cc12 [Example 769, (5S)-7-(4-fluoro-3-pyridinyl)-3-(3-pyridinyl)spiro[chromeno[2,3-b]pyridine-5,4′-[1,3]thiazol]-2′-amine] | 2.3 nM | 44 nM |
| NC1=N[C@@]2(CS1)c1cc(-c3cncc(F)c3)ccc1Oc1ncc(C3=CCCOC3)cc12 [Example 770, (5S)-3-(5,6-dihydro-2H-pyran-3-yl)-7-(5-fluoro-3-pyridinyl)spiro[chromeno[2,3-b]pyridine-5,4′-[1,3]thiazol]-2′-amine] | 0.6 nM | 10 nM |
| NC1=N[C@@]2(CS1)c1cc(-c3cncc(F)c3)ccc1Oc1ncc(-c3ncccn3)cc12 [Example 771, (5S)-7-(5-fluoro-3-pyridinyl)-3-(2-pyrimidinyl)spiro[chromeno[2,3-b]pyridine-5,4′-[1,3]thiazol]-2′-amine] | 4.6 nM | 96 nM |
| CC#Cc1cncc(-c2ccc3c(c2)[C@@]2(CSC(N)=N2)c2cc(C4=CCOCC4)cnc2O3)c1 [Example 772, (5S)-3-(3,6-dihydro-2H-pyran-4-yl)-7-(5-(1-propyn-1-yl)-3-pyridinyl)spiro[chromeno[2,3-b]pyridine-5,4′-[1,3]thiazol]-2′-amine] | 0.5 nM | 2 nM |

Other lines, results leading:

| IC50 [1] | IC50 [2] | SMILES |
| --- | --- | --- |
| 0.7 nM | 4 nM | CC#Cc1cncc(-c2ccc3c(c2)C2(COC(N)=N2)c2cc(C4CCOCC4)nc(F)c2O3)c1 (stereo not drawn) [Example 750, 1-fluoro-7-(5-(1-propyn-1-yl)-3-pyridinyl)-3-(tetrahydro-2H-pyran-4-yl)spiro[chromeno[2,3-c]pyridine-5,4′-[1,3]oxazol]-2′-amine] |
| 3.2 nM | 42 nM | N#Cc1cccc(-c2ccc3c(c2)C2(COC(N)=N2)c2cc(C4CCOCC4)nc(F)c2O3)c1 (stereo not drawn) [Example 751, 3-(2′-amino-1-fluoro-3-(tetrahydro-2H-pyran-4-yl)spiro[chromeno[2,3-c]pyridine-5,4′-[1,3]oxazol]-7-yl)benzonitrile] |
| 5.6 nM | 77 nM | NC1=NC2(CO1)c1cc(-c3cccnc3)ccc1Oc1c2cc(C2CCOCC2)nc1F (stereo not drawn) [Example 752, 1-fluoro-7-(3-pyridinyl)-3-(tetrahydro-2H-pyran-4-yl)spiro[chromeno[2,3-c]pyridine-5,4′-[1,3]oxazol]-2′-amine] |
| 0.7 nM | 4 nM | CC#Cc1cncc(-c2ccc3c(c2)[C@@]2(COC(N)=N2)c2cc(C4CCOCC4)nc(F)c2O3)c1 [Example 753, (5S)-1-fluoro-7-(5-(1-propyn-1-yl)-3-pyridinyl)-3-(tetrahydro-2H-pyran-4-yl)spiro[chromeno[2,3-c]pyridine-5,4′-[1,3]oxazol]-2′-amine] |
| 156 nM | 691 nM | CC#Cc1cncc(-c2ccc3c(c2)[C@]2(COC(N)=N2)c2cc(C4CCOCC4)nc(F)c2O3)c1 [Example 754, (5R)-1-fluoro-7-(5-(1-propyn-1-yl)-3-pyridinyl)-3-(tetrahydro-2H-pyran-4-yl)spiro[chromeno[2,3-c]pyridine-5,4′-[1,3]oxazol]-2′-amine] |
| 0.4 nM | 2 nM | CC#Cc1cncc(-c2ccc3c(c2)[C@@]2(COC(N)=N2)c2cc(C4=CCCOC4)nc(F)c2O3)c1 [Example 758, (5S)-3-(5,6-dihydro-2H-pyran-3-yl)-1-fluoro-7-(5-(1-propyn-1-yl)-3-pyridinyl)spiro[chromeno[2,3-c]pyridine-5,4′-[1,3]oxazol]-2′-amine] |
| 0.3 nM | 2 nM | CC#Cc1cncc(-c2ccc3c(c2)[C@@]2(COC(N)=N2)c2cc(C4=CCOCC4)nc(F)c2O3)c1 [Example 760, (5S)-3-(3,6-dihydro-2H-pyran-4-yl)-1-fluoro-7-(5-(1-propyn-1-yl)-3-pyridinyl)spiro[chromeno[2,3-c]pyridine-5,4′-[1,3]oxazol]-2′-amine] |
| 0.9 nM | 185 nM | CC#Cc1cncc(-c2ccc3c(c2)[C@@]2(COC(N)=N2)c2cc(Cl)nc(F)c2O3)c1 [Example 761, (5S)-3-chloro-1-fluoro-7-(5-(1-propyn-1-yl)-3-pyridinyl)spiro[chromeno[2,3-c]pyridine-5,4′-[1,3]oxazol]-2′-amine] |
